Assay results taken from patent publication EP0095451A2, “Novel dihydropyridines” (priority 1982, dated 1983).

Key:
[1] = tested on: isolated portal vein preparation / paced isolated papillary heart muscle preparation; assay: Specificity towards smooth muscle relaxation: isolated portal vein versus paced papillary heart muscle in an organ bath; parameters: species or system Wistar rats; conditions: separation value: averaged difference of -log ED50 portal vein (vasodilatation) and -log ED50 papillary muscle (myocardial depression), transformed into numeric format
Protocol: The specificity towards smooth muscle relaxation was examined as follows: The isolated portal vein preparation of Wistar rats was mounted in an organ bath together with a paced isolated papillary heart muscle preparation of the same animal. The integrated contractile activity of the portal vein smooth muscle and the peak force amplitude of the papillary, myocardial, preparation were recorded. The respective activities during a 30 min control period were set as 100 per cent and the ensuing activities under the influence of an agent under study were expressed as a percentage thereof. The agent was administered at 10 min intervals and the potency for vasodilatation (-log ED50 of portal vein) and that of myocardial depression (-log ED50 of ^pa^pill- ary muscle) were determined by interpolation from the concentration-effect relationships determined in each experiment. A "separation" value was determined for each compound by averaging the differences of the -log ED50 values for vasodilatation and myocardial depression, respectively, ogtained in the experiments. This logarithmic separation value was transformed into numeric format and entered into table 2.

[2] = tested on: spontaneously hypertensive rats (SHR) of the Okamoto strain; assay: Antihypertensive effect in conscious, unrestrained spontaneously hypertensive rats, oral cumulative dosing; assay type: in vivo; conditions: Rattus norvegicus; dose giving 20 per cent reduction of mean arterial BP, by interpolation; oral intubation in methocel, cumulated doses 1, 5 and 25 µmoles/kg at 2 hour intervals
Protocol: The antihypertensive effect of the compounds was tested in conscious, unrestrained spontaneously hypertensive rats (SHR) of the Okamoto strain. The animals had been prepared by prior implantation of indwelling catheters in the abdominal aorta via the femoral artery. Mean arterial blood pressure (MABP) and heart rate were continuously monitored. After a 2 hour control period the compound under study was administered by oral intubation at 2 hour intervals, suspended in methocel solution (5 ml/kg bodyweight). The cumulated doses were 1, 5 and 25)jmoles/kg bodyweight. The antihypertensive response, i.e. the BP'reduction to each dose, was expressed as a percentage of the initial control BP level and plotted against the dose on a logarithmic scale. The dose which would give 20 per cent BP reduction was then determined by interpolation.

Q: COC(=O)C1=C(C)NC(C)=C(C(=O)OCCSCCN(C)C)C1c1cccc([N+](=O)[O-])c1 (stereo not drawn) [Compound 1, 2,6-dimethyl-4-(3-nitrophenyl)-1,4-dihydropyridine-3,5--dicarboxylic acid-3-[2-(N,N-dimethylaminoethylthio)ethyl]--5-methyl ester] was tested. Which Ratio heart vasc. [1] did it give?
A: 30

Q: What about the ED20 [2] of the same molecule?
A: 16 µmol/kg

Q: Which results are given for COC(=O)C1=C(C)NC(C)=C(C(=O)OCCSCCN(C)C)C1c1ccccc1[N+](=O)[O-] (stereo not drawn) [Compound 2, 2,6-dimethyl-4-(2-nitrophenyl)-1,4-dihydropyridine-3,5--dicarboxylic acid-3-[2-(2-N,N-dimethylaminoethylthio)ethyl]--5-methyl ester]?
A: Ratio heart vasc. [1]: 5; ED20 [2]: 30 µmol/kg

Q: What does the source list for COC(=O)C1=C(C)NC(C)=C(C(=O)OCCSCCN(C)C)C1c1cccc(C#N)c1 (stereo not drawn) [Compound 3, 2,6-dimethyl-4-(3-cyanophenyl)-1,4-dihydropyridine-3,5--dicarboxylic acid-3-[2-(2-N,N-dimethylaminoethylthio)ethyl)--5-methyl ester]?
A: Ratio heart vasc. [1]: 18; ED20 [2]: 50 µmol/kg

Q: How did the Ratio heart vasc. [1] turn out when COC(=O)C1=C(C)NC(C)=C(C(=O)OCCSCCN(C)C)C1c1cccc(Cl)c1Cl (stereo not drawn) [Compound 4, 2,6-dimethyl-4-(2,3-dichlorophenyl)-1,4-dihydropyridine-3,5-dicarboxylic acid-3-[2-(2-N,N-dimethyl-aminoethylthio)ethyl]-5-methyl ester] was run?
A: 3

Q: And the ED20 [2]?
A: 19 µmol/kg

Q: What does the source list for CC1=C(C(=O)OCCSCCN(C)C)C(c2cccc(Cl)c2Cl)C(C(=O)OC(C)C)=C(C)N1 (stereo not drawn) [Compound 5, 2,6-dimethyl-4-(2,3-dichlorophenyl)-1,4-dihydropyridine--3,5-dicarboxylic acid-3-[2-(2-N,N-dimethylaminoethylthio)-ethyl)-5-(2-methylethyl)ester]?
A: Ratio heart vasc. [1]: 19; ED20 [2]: 20 µmol/kg

Q: What does the source list for CCOC(=O)C1=C(C)NC(C)=C(C(=O)OCCSCCN(C)C)C1c1cccc(Cl)c1Cl (stereo not drawn) [Compound 6, 2,6-dimethyl-4-(2,3-dichlorophenyl]-1,4-dihydropyridine--3,5-dicarboxylic acid-3-[2-(2-N,N-dimethylaminoethylthio)-ethyl]-5-ethyl ester]?
A: Ratio heart vasc. [1]: 16; ED20 [2]: 25 µmol/kg

Q: How did the Ratio heart vasc. [1] turn out when COCCOC(=O)C1=C(C)NC(C)=C(C(=O)OCCSCCN(C)C)C1c1cccc(Cl)c1Cl (stereo not drawn) [Compound 7, 2,6-dimethyl-4-(2,3-dichlorophenyl)-1,4-dihydropyridine--3,5-dicarboxylic acid-3-[2-(2-N,N-dimethylaminoetylthio-ethyl]-5-12-methoxyethyl) ester] was run?
A: 20

Q: And the ED20 [2]?
A: 56 µmol/kg

Q: For CCN(CC)CCSCCOC(=O)C1=C(C)NC(C)=C(C(=O)OC)C1c1cccc(Cl)c1Cl (stereo not drawn) [Compound 8], which Ratio heart vasc. [1] is on record?
A: 4

Q: What about the ED20 [2] of the same molecule?
A: 6 µmol/kg

Q: Which Ratio heart vasc. [1] does the source give for COC(=O)C1=C(C)NC(C)=C(C(=O)OCCSCCN2CCOCC2)C1c1cccc(Cl)c1Cl (stereo not drawn) [Compound 9, 2,6-dimethyl-4-(2,3-dichlorophenyl)-1,4-dihydropyridine--3,5-dicarboxylic acid-3-[2-(2-morpholinoethylthio)-ethyl]--5-methyl ester] here?
A: 27

Q: And the ED20 [2]?
A: 5 µmol/kg

Q: With COC(=O)C1=C(C)NC(C)=C(C(=O)OCCSCCN(Cc2ccccc2)C(C)C)C1c1cccc(Cl)c1Cl (stereo not drawn) [Compound 10] as the molecule, how does the Ratio heart vasc. [1] read?
A: 22

Q: What about the ED20 [2] of the same molecule?
A: 9 µmol/kg

Q: With COC(=O)C1=C(C)NC(C)=C(C(=O)OCCSCCCN(C)C)C1c1cccc(Cl)c1Cl (stereo not drawn) [Compound 11, 2,6-dimethyl-4-(2,3-dichlorophenyl)-1,4-dihydropyridine--3,5-dicarboxylic acid-3-[2-(3-N,N-dimethylaminopropylthio)-ethyl]-5-methyl ester] as the molecule, how does the Ratio heart vasc. [1] read?
A: 3

Q: Which results are given for COCCOC(=O)C1=C(C)NC(C)=C(C(=O)OCCSCCN(Cc2ccccc2)C(C)C)C1c1cccc(Cl)c1Cl (stereo not drawn) [Compound 12, 2,6-dimethyl-4-(2,3-dichlorophenyl)-1,4-dihydropyridine--3,5-dicarboxylic acid-3-[2-(2-N-isopropyl-N-benzylethyl-thio)ethyl]-5-(2-methoxyethyl) ester]?
A: Ratio heart vasc. [1]: 50; ED20 [2]: 26 µmol/kg

Q: With COCCOC(=O)C1=C(C)NC(C)=C(C(=O)OCCSCCN2CCOCC2)C1c1cccc(Cl)c1Cl (stereo not drawn) [Compound 13, 2,6-dimethyl-4-(2,3-dichlorophenyl)-1,4-dihydropyridine-3,5-dicarboxylic acid-3-[2-(2-morpholinoethyl-thio)ethyl]-5-(2-methoxethyl) ester] as the molecule, how does the Ratio heart vasc. [1] read?
A: 70

Q: And the ED20 [2]?
A: 15 µmol/kg

Q: COC(=O)C1=C(C)NC(C)=C(C(=O)OC)C1c1ccccc1[N+](=O)[O-] [Nifedipine, 2,6-dimethyl-4-(2-nitrophenyl)-1,4-dihydropyridine-3,5-dicarboxylic acid-3,5-dimethylester, reference compound] was tested. Which Ratio heart vasc. [1] did it give?
A: 15

Q: What about the ED20 [2] of the same molecule?
A: 5 µmol/kg
